Legend:
primary cortical neurons = assay: Aβ1-42-induced primary cortical neuronal injury test (Luminescent Cell Viability Assay); assay type: cell-based, rat; details: single agent, pre-incubation 30 min before oligomerized Aβ1-42 50 μM, 24 h; edaravone 3.7 to 100 μM, dexborneol 1.2 to 100 μM; vs DMSO group
Description: A SD pregnant rat at 18 days of pregnancy was sacrificed by cervical dislocation, the uteruses of the rat were dissected, the brain of E18 fetal rat was taken out, the cerebral cortical tissue of the fetal rat was isolated into an ice-cold DMEM, the meninge and blood vessels were removed from the cortical tissue under a dissecting microscope, the cortical tissue was transferred to an ice-cold DMEM and minced (about 1 mm^3), and digested with trypsin at 37° C. for 10 min, the digestion was terminated with FBS, a Pasteur pipette was used to perform gentle pipetting and dispersing, and screening was then performed using a 200-mesh sieve. […] The cells were counted by a hemocytometer, diluted to 5×10^5 cells/ml with a complete medium, and seeded in a 96-well plate coated with PDL (100 μL/well) for culture. […]
The medium of the in vitro matured primary neurons was replaced with a complete medium containing different concentrations (1.2, 3.7, 11.1, 33.3, 100.0 μM) of edaravone (E), dexborneol (B) or an edaravone and dexborneol composition (EB), after incubation at 37° C. for 30 min, oligomerized Aβ1-42 (final concentration of 50 μM) was added, the culture was continued for 24 h, and the neuronal viability was tested. […] LUMbackground is the background reading of the cell-free medium well into which Luminescent Cell Viability Assay kit is added. […]

ICV-STZ model rats = assay: Morris water maze test in rats of intracerebroventricular STZ-induced dementia; assay type: in vivo, rat; details: edaravone 6 mg/kg (plus dexborneol 0.8, 1.2 or 2.4 mg/kg), intraperitoneal, once daily
Description: The experimental animals were divided into […]: sham surgery group, model group, edaravone group (6 mg/kg), edaravone and dexborneol (7.5:1) composition (edaravone 6 mg/kg, dexborneol 0.8 mg/kg), edaravone and dexborneol (5:1) composition (edaravone 6 mg/kg, dexborneol 1.2 mg/kg), and edaravone and dexborneol (2.5:1) composition (edaravone 6 mg/kg, dexborneol 2.4 mg/kg). The animals in the model group and sham surgery groups were given the corresponding volume of blank solvent (8% propylene glycol), all administrations were intraperitoneal injection administrations, and the administration volume is 10 ml/kg.
In addition to the sham surgery group, animals with successful surgery were randomly assigned to the model group and administration groups in order. […]
This trial lasted for 4 days. The platform was fixed in the target quadrant (SE quadrant) during the trial, water entry was performed from the water entry points of the four quadrants, respectively, animals were gently placed in the water facing the sign on the pool wall during training, the time (escape latency) for the animal to find the platform was recorded, and then the animal was allowed to stay on the platform for 10 s. […]

SH-SY5Y-APP695 = details: 0.3 to 3 μM; cited from earlier work
[1] = test system: rat model of L-methionine-induced vascular dementia; details: intraperitoneal 6 mg/kg/day for 9 consecutive weeks; cited from earlier work
[2] = test system: APP/PS1 transgenic mouse model; details: cited from earlier work
[3] = mice; cited from earlier work
[4] = test system: tau P301L transgenic mouse model; details: tau P301L mice aged 9 to 10 months and 21 months; oral with drinking water 24 mg/kg/day for 3 consecutive months; cited from earlier work

Structure (SMILES): CC1=NN(c2ccccc2)C(=O)C1 [edaravone, 3-methyl-1-phenyl-2-pyrazolin-5-one]
- inhibiting Aβ-induced neurotoxicity, increasing the cell viability (primary cortical neurons): capable of inhibiting Aβ-induced neurotoxicity in a concentration-dependent manner
- escape latency in water maze hidden platform trial, vs model group (ICV-STZ model rats): could significantly shorten the escape latency
- residence time in the target quadrant in water maze space probe trial, vs model group (ICV-STZ model rats): significantly prolonged
- BACE1 expression, cleavage of APP and Aβ production (SH-SY5Y-APP695): capable of reducing BACE1 expression, cleavage of APP and Aβ production in a concentration-dependent manner
- GSK-3β activation and tau phosphorylation (SH-SY5Y-APP695): inhibiting GSK-3β activation and reducing tau phosphorylation
- spatial learning and memory in eight-arm water maze test [1]: can significantly improve the spatial learning and memory of the model rats in eight-arm water maze test
- deficits in the cognitive function in water maze test ([2]; APP/PS1 mice, 12.6 mg/kg intraperitoneal twice a week, prophylactic (3 to 9 months) and therapeutic (9 to 12 months)): can improve the deficits in the cognitive function in water maze test
- cognitive function of aged transgenic mice ([2]; APP/PS aged mice (14 to 17 months), oral with drinking water 8, 24 and 72 mg/kg/day): significantly improves the cognitive function of aged transgenic mice
- Aβ plaque deposition within the brain and cognitive function ([2]; mice aged 3-12 months, oral with drinking water 33.2 mg/kg/day): can also reduce Aβ plaque deposition within the brain and improve the cognitive function of mice
- oral bioavailability [3]: 38%
- cognitive function in water maze test and novel object recognition test [4]: can significantly improve the cognitive function of the animals in water maze test and novel object recognition test
